Data published in ChEMBL document CHEMBL5725892, “Triazolo[4,5-D]pyrimidine derivatives” (2017).

Biological target: Cannabinoid receptor 2 (Homo sapiens, UniProt P34972)
Assay: cAMP Assay: CHO cells expressing human CB1 or CB2 receptors are seeded 17-24 hours prior to the experiment 50.000 cells per well in a black 96 well plate with flat clear bottom (Corning Costar #3904) in DMEM (Invitrogen No. 31331), 1×HT supplement, with 10% fetal calf serum and incubated at 5% CO2 and 37° C. in a humidified incubator. The growth medium was exchanged with Krebs Ringer Bicarbonate buffer with 1 mM IBMX and incubated at 30° C. for 30 min. Compounds were added to a final assay volume of 100 μl and incubated for 30 min at 30° C. Using the cAMP-Nano-TRF detection kit the assay (Roche Diagnostics) was stopped by the addition of 50 μl lysis reagent (Tris, NaCl, 1.5% Triton X100, 2.5% NP40, 10% NaN3) and 50 μl detection solutions (20 μM mAb Alexa700-cAMP 1:1, and 48 μM Ruthenium-2-AHA-cAMP) and shaken for 2 h at room temperature. The time-resolved energy transfer is measured by a TRF reader (Evotec Technologies GmbH), equipped with a ND:YAG laser as excitation source. The plate is measured twice with the excitation at 355 nm and at the emission with a delay of 100 ns and a gate of 100 ns, total exposure time 10 s at 730 (bandwidth 30 nm) or 645 nm (bandwidth 75 nm), respectively. […]

Chain of Cannabinoid receptor 2 (P34972 whole entry): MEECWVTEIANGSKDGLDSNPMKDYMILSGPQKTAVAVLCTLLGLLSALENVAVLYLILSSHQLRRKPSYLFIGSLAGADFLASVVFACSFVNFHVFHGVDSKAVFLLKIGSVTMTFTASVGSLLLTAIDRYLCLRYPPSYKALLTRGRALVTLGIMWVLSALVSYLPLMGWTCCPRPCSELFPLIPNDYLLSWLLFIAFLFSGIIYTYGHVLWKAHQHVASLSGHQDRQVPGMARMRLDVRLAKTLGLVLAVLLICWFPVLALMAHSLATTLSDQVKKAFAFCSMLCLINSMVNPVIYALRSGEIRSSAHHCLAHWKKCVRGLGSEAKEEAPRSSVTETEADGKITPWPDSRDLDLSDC

**Q.** Which EC50 does the source give for `CC(=O)N[C@H]1CCN(c2nc(O[C@@H](C)C(F)(F)F)nc3c2nnn3Cc2ccccc2C(F)(F)F)C1` here?
**A.** The EC50 was 0.0789 µM.
